This passage reports IC50 results from US7098340B2, “Benzyl sulfonamide derivatives” (Warner Lambert Company LLC, priority 2003, dated 2006).

SMILES strings stand for the structures.

The term IC50 denotes the midpoint of a concentration-inhibition curve.

For the assay, the target named is T1, androgen receptor (Homo sapiens, UniProt P10275).
T1 sequence (P10275 1-920 Q868H): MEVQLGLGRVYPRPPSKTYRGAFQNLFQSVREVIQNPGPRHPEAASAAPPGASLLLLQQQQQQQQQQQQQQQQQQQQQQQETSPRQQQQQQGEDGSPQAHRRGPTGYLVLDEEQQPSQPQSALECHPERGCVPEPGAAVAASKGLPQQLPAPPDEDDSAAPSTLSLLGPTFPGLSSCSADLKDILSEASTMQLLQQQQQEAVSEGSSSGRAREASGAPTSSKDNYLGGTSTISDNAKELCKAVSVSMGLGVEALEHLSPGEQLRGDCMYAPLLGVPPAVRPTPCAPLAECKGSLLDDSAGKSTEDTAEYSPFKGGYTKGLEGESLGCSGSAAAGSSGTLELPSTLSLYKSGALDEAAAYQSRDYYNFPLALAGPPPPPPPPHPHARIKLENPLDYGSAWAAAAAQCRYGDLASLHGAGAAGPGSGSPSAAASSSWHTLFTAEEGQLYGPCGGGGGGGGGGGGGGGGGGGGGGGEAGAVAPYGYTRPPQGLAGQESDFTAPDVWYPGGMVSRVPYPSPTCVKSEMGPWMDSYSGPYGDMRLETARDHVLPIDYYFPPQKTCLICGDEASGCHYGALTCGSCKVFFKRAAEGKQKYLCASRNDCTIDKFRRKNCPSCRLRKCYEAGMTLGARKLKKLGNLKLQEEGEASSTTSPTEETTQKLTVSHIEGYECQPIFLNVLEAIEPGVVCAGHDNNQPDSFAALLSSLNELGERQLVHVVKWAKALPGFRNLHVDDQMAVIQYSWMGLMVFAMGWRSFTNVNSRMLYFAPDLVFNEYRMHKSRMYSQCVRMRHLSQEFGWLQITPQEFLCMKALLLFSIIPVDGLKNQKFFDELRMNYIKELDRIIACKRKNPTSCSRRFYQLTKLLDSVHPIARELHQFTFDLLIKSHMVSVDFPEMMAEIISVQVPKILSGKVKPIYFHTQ
The assay is described as follows: AR Antagonist Cell Assay (MMTV-luciferase reporter, DHT-stimulated). Format: cell-based. The note with it: MDA-MB453-MMTV clone 54-19 cells; antagonism of 100 pM DHT, 17 hr, luciferase readout. The procedure:
The compounds ability to antagonize the effects of androgen on the androgen receptor were determined in the protocol described immediately below.
Experimental Procedure for AR Antagonist Cell Assay
Cell line: MDA-MB453-MMTV clone 54–19. This cell line is a stable transfected cell line with MDA-MB453 cell background (human breast tumor cell expressing high level of androgen receptor). A MMTV minimal promoter containing ARE was first cloned in front of a firefly luciferase reporter gene. Then the cascade was cloned into transfection vector pUV120puro. Electroporation method was used for transfecting MDA-MB-453 cell. Puromycin resistant stable cell line was selected.
Cell Culture Media and Reagents:
Culture medium: DMEM (high glucose, Gibco cat #: 11960-044), 10% FBS, and 1% L-glutamine
Plating medium: DMEM (phenol red free), 10% charcoal treated HyClone serum, 1% L-glutamine
Assay medium: DMEM (phenol red free), 1% charcoal treated HyClone serum, 1% L-glutamine, and 1% penicillin/streptomycin
3× luciferase buffer: 2% beta-mercaptoethanol, 0.6% ATP, 0.0135% luciferine in cell lysis buffer
• 1. Cells are maintained in culture medium, splitting cells when they reach 80–90% confluence • 2. To test compounds, 10,000 cells/well are plated to opaque 96 cell culture plate in 100 ul/well plating medium, culture for overnight at 37° C. in cell culture incubator • 3. Carefully remove plating medium, then add 80 ul/well of pre-warmed assay medium, add 10 ul/well testing compound (final concentration at 10 uM or 1 uM), incubate at 37° C. for 30 minutes • 4. Add 10 ul/well freshly prepared DHT (final concentration at 100 pM) to each well, incubate at 37° C. for 17 hr (overnight) • 5. Add 50 ul/well 3× luciferase buffer, incubate at room temperature for 5 minutes, then count on Luminometer.
The fold induction over background by 100 pM DHT in the absence of testing compounds is standardized as 100% and experimental result is expressed as percentage of inhibition by testing compounds.
In general terms: Reporter assays use an easily measured gene product as a stand-in for the process of interest.
With `CN(CCc1ccccc1)S(=O)(=O)c1ccc(Cc2ccc3oc(=O)cc(C(F)(F)F)c3c2)cc1` [Example 112, N-Methyl-4-(2-oxo-4-trifluoromethyl-2H-chromen-6-ylmethyl)-N-phenethyl-benzenesulfonamide], the IC50 was > 10 µM.

Take `Cc1cccc(CNS(=O)(=O)c2ccc(Cc3ccc4[nH]c(=O)cc(C(F)(F)F)c4c3)cc2)c1` [Example 58, N-(3-Methylbenzyl)-4-(2-oxo-4-trifluoromethyl-1,2-dihydroquinolin-6-ylmethyl)-benzenesulfonamide]: the IC50 was > 10 µM.

In turn, `O=c1cc(C(F)(F)F)c2cc(Cc3ccc(S(=O)(=O)NCCO)cc3)ccc2[nH]1` [Example 51, N-(2-Hydroxyethyl)-4-(2-oxo-4-trifluoromethyl-1,2-dihydroquinolin-6-ylmethyl)-benzenesulfonamide] showed an IC50 of 2.18 µM.

As for `O=c1cc(C(F)(F)F)c2cc(Cc3ccc(S(=O)(=O)NCc4cc(Cl)ccc4F)cc3)ccc2[nH]1` [Example 76, N-(5-Chloro-2-fluorobenzyl)-4-(2-oxo-4-trifluoromethyl-1,2-dihydroquinolin-6-ylmethyl)-benzenesulfonamide], the IC50 is > 10 µM.

For `N#CCc1ccc(NS(=O)(=O)c2ccc(Cc3ccc4oc(=O)cc(C(F)(F)F)c4c3)cc2)cc1` [Example 126, N-(4-Cyanomethylphenyl)-4-(2-oxo-4-trifluoromethyl-2H-chromen-6-ylmethyl)-benzenesulfonamide], inhibition was half-maximal at 1.89 µM (IC50).

Regarding `O=c1cc(C(F)(F)F)c2cc(Cc3ccc(S(=O)(=O)NCCCn4ccnc4)cc3)ccc2[nH]1` [Example 60, N-(3-Imidazol-1-ylpropyl)-4-(2-oxo-4-trifluoromethyl-1,2-dihydroquinolin-6-ylmethyl)-benzenesulfonamide], inhibition was half-maximal at 9.16 µM (IC50).

With `CCCCN(C)S(=O)(=O)c1ccc(Cc2ccc3oc(=O)cc(C(F)(F)F)c3c2)cc1` [Example 107, N-Butyl-N-methyl-4-(2-oxo-4-trifluoromethyl-2H-chromen-6-ylmethyl)benzenesulfonamide], inhibition was half-maximal at 3.45 µM (IC50).

For the compound `O=c1cc(C(F)(F)F)c2cc(Cc3ccc(S(=O)(=O)NC[C@H](O)CO)cc3)ccc2o1` [Example 160, N-(2,3-Dihydroxypropyl)-4-(2-oxo-4-trifluoromethyl-2H-chromen-6-ylmethyl)benzenesulfonamide], the IC50 is > 10 µM.

Compound `O=c1cc(C(F)(F)F)c2cc(Cc3ccc(S(=O)(=O)NCC(c4ccccc4)c4ccccc4)cc3)ccc2o1` [Example 206, N-(2,2-Diphenylethyl)-4-(2-oxo-4-trifluoromethyl-2H-chromen-6-ylmethyl)benzene-sulfonamide] showed a half-inhibitory concentration (IC50) of 5.74 µM.

As to `O=c1cc(C(F)(F)F)c2cc(Cc3ccc(S(=O)(=O)Nc4cccc5cnccc45)cc3)ccc2[nH]1` [Example 31, N-Isoquinolin-5-yl-4-(2-oxo-4-trifluoromethyl-1,2-dihydroquinolin-6-ylmethyl)-benzenesulfonamide], the IC50 is > 10 µM.

For `O=c1cc(C(F)(F)F)c2cc(Cc3ccc(S(=O)(=O)Nc4cccc(Cc5ccccc5)c4)cc3)ccc2[nH]1` [Example 43, N-(3-Benzylphenyl)-4-(2-oxo-4-trifluoromethyl-1,2-dihydroquinolin-6-ylmethyl)-benzenesulfonamide], the IC50 is > 10 µM.

As to `CC(C)c1ccc(NS(=O)(=O)c2ccc(Cc3ccc4oc(=O)cc(C(F)(F)F)c4c3)cc2)cc1` [Example 130, N-(4-Isopropylphenyl)-4-(2-oxo-4-trifluoromethyl-2H-chromen-6-ylmethyl)-benzenesulfonamide], the IC50 worked out at 3.91 µM.

`O=c1cc(C(F)(F)F)c2cc(Cc3ccc(S(=O)(=O)NC4CCN(Cc5ccccc5)CC4)cc3)ccc2o1` [Example 157, N-(1-Benzylpipendin-4-yl)-4-(2-oxo-4-trifluoromethyl-2H-chromen-6-ylmethyl)benzenesulfonamide] returned an IC50 of 6.09 µM.

For `O=c1cc(C(F)(F)F)c2cc(Cc3ccc(S(=O)(=O)NCCc4ccc(Cl)cc4)cc3)ccc2[nH]1` [Example 74, N-[2-(4-Chlorophenyl)ethyl]-4-(2-oxo-4-trifluoromethyl-1,2-dihydroquinolin-6-ylmethyl)-benzenesulfonamide], the IC50 is > 10 µM.

For `O=c1cc(C(F)(F)F)c2cc(Cc3ccc(S(=O)(=O)Nc4ccc(CCO)cc4)cc3)ccc2o1` [Example 151, N-[4-(2-Hydroxyethyl)phenyl]-4-(2-oxo-4-trifluoromethyl-2H-chromen-6-ylmethyl)-benzenesulfonamide], the IC50 is 1.75 µM.

Consider `O=c1cc(C(F)(F)F)c2cc(Cc3ccc(S(=O)(=O)N(CCO)Cc4ccccc4)cc3)ccc2[nH]1` [Example 9, N-Benzyl-N-(2-hydroxyethyl)-4-(2-oxo-4-trifluoromethyl-1,2-dihydroquinolin-6-ylmethyl)benzenesulfonamide], for which the IC50 is > 10 µM.

As to `O=c1cc(C(F)(F)F)c2cc(Cc3ccc(S(=O)(=O)Nc4cccc5c4CCC5)cc3)ccc2o1` [Example 128, N-Indan-4-yl-4-(2-oxo-4-trifluoromethyl-2H-chromen-6-ylmethyl)benzenesulfonamide], inhibition was half-maximal at 4.77 µM (IC50).

For `COc1cc(CNS(=O)(=O)c2ccc(Cc3ccc4[nH]c(=O)cc(C(F)(F)F)c4c3)cc2)cc(OC)c1` [Example 80, N-(3,5-Dimethoxybenzyl)-4-(2-oxo-4-trifluoromethyl-1,2-dihydroquinolin-6-ylmethyl)-benzenesulfonamide], the half-inhibitory concentration (IC50) was > 10 µM.

Take `O=c1cc(C(F)(F)F)c2cc(Cc3ccc(S(=O)(=O)Nc4cccc(Cc5ccccc5)c4)cc3)ccc2o1` [Example 149, N-(3-Benzylphenyl)-4-(2-oxo-4-trifluoromethyl-2H-chromen-6-ylmethyl)benzenesulfonamide]: half-maximal inhibition (IC50) required 4.74 µM. This lies in the single-digit micromolar range.

As for `O=c1cc(C(F)(F)F)c2cc(Cc3ccc(S(=O)(=O)NCc4c(F)cccc4Cl)cc3)ccc2[nH]1` [Example 78, N-(2-Chloro-6-fluorobenzyl)-4-(2-oxo-4-trifluoromethyl-1,2-dihydroquinolin-6-ylmethyl)-benzenesulfonamide], the IC50 is > 10 µM.

`Cc1ccc(F)c(CNS(=O)(=O)c2ccc(Cc3ccc4oc(=O)cc(C(F)(F)F)c4c3)cc2)c1Cl` [Example 200, N-(2-Chloro-6-fluoro-3-methylbenzyl)-4-(2-oxo-4-trifluoromethyl-2H-chromen-6-ylmethyl)benzenesulfonamide] yielded an IC50 of 6.91 µM. In other words, the single-digit micromolar range.

`O=c1cc(C(F)(F)F)c2cc(Cc3ccc(S(=O)(=O)NCc4cc(C(F)(F)F)ccc4F)cc3)ccc2[nH]1` [Example 90, N-(2-Fluoro-5-trifluoromethylbenzyl)-4-(2-oxo-4-trifluoromethyl-1,2-dihydroquinolin-6-ylmethyl)-benzenesutfonamide] showed an IC50 of 2.62 µM.

For `O=c1cc(C(F)(F)F)c2cc(Cc3ccc(S(=O)(=O)N[C@H]4CCCC[C@H]4OCc4ccccc4)cc3)ccc2[nH]1` [Example 93, N-(2-Benzyloxycyclohexyl)-4-(2-oxo-4-trifluoromethyl-1,2-dihydroquinolin-6-ylmethyl)-benzenesulfonamide], the IC50 is > 10 µM.

With `CCN(Cc1ccccc1)S(=O)(=O)c1ccc(Cc2ccc3oc(=O)cc(C(F)(F)F)c3c2)cc1` [Example 110, N-Benzyl-N-ethyl-4-(2-oxo-4-trifluoromethyl-2H-chromen-6-ylmethyl)benzenesulfonamide], half-maximal inhibition (IC50) was put at 5.94 µM.
